Where two headings read alike, the source gives them in different places. Residues, ends and D or L forms follow the SMILES beside them. No end group written: not given here.
Legend:
[1] = system: BW25113 wild-type; experiment: MIC in LPS backgrounds; assay type: cell-based, Escherichia coli; settings: E. coli BW25113 wild-type; CLSI; triplicates
Description: (§1) The Yersinia ruckeri strain was kindly provided by Prof. Kurt Buchmann, University of Copenhagen, Faculty of Health and Medical Sciences, and the Flavobacterium psychrophilum strain was kindly provided by Prof. Inger Dalsgaard, DTU, Denmark. BW25113 is the Escherichia coli wild-type strain, a derivative of the F^-,λ^- E. coli K12 strain BD792 which was used in generating the KEIO collection. E. coli ATCC25922 is a clinical isolate, serotype O6 and is often used as control strain in antimicrobial susceptibility testing. All strains were grown in Mueller-Hinton-II medium, except L. monocytogenes which was grown in BHI medium and F. psychrophilum which was grown in TYES medium (Tryptone yeast extract plus salts). Incubation took place aerobically at 37°C, except for Y. ruckeri and A. salmonicida, which were grown aerobically at RT (20°C), C. jejuni NCTC11168 which was grown under microaerophilic conditions at 42°C and F. psychrophilum 1947 which was grown under aerobic conditions at 15°C. All plates were incubated for 18–20 hours, except the F. psychrophilum plates, which were incubated for 72 hours.
(§2) The minimum inhibitory concentrations (MICs) of the AMPs were measured in 96-well microtiter plates according to the Clinical and Laboratory Standards Institute (CLSI, formerly National Committee for Clinical Laboratory Standards [NCCLS]). Briefly, liquid Mueller-Hinton-II medium containing increasing concentrations of AMPs is inoculated with a defined number of cells (approx. 10^5 CFUs/ml) in 96-well microtiter plates (polypropylene), whereas each plate also includes a positive growth control and a negative control (sterile control). After incubation, the MIC is determined by the lowest concentration showing no visible growth. All plates were incubated for 18–20 hours, except the F. psychrophilum plates which were incubated for 72 hours.

[2] = system: ATCC25922 ΔrfaC; assay type: cell-based, Escherichia coli; settings: E. coli ATCC25922 ΔrfaC; CLSI; triplicates
Description: as §1, §2
(§3) Construction of knock-out mutants of E. coli ATCC25922 were constructed using the λ-Red recombinase gene replacement system. Primers for amplification of the npt gene of pKD4 are listed in S1 Table. The correct double-crossover and recombination event was confirmed by primers listed in S1 Table and by sequencing. Finally, the kanamycin cassette was removed.

[3] = system: ATCC25922 ΔrfaF; assay type: cell-based, Escherichia coli; settings: E. coli ATCC25922 ΔrfaF; CLSI; triplicates
Description: as §1, §2, §3

[4] = system: ATCC25922 ΔrfaE; assay type: cell-based, Escherichia coli; settings: E. coli ATCC25922 ΔrfaE; CLSI; triplicates
Description: as §1, §2, §3

[5] = system: ATCC25922 ΔrfaG; assay type: cell-based, Escherichia coli; settings: E. coli ATCC25922 ΔrfaG; CLSI; triplicates
Description: as §1, §2, §3

[6] = system: BW25113 ΔrfaG; assay type: cell-based, Escherichia coli; settings: E. coli BW25113 ΔrfaG; CLSI; triplicates
Description: as §1, §2

[7] = system: BW25113 ΔrfaF; assay type: cell-based, Escherichia coli; settings: E. coli BW25113 ΔrfaF; CLSI; triplicates
Description: as §1, §2

[8] = system: BW25113 ΔrfaC; assay type: cell-based, Escherichia coli; settings: E. coli BW25113 ΔrfaC; CLSI; triplicates
Description: as §1, §2

[9] = system: BW25113 ΔrfaE; assay type: cell-based, Escherichia coli; settings: E. coli BW25113 ΔrfaE; CLSI; triplicates
Description: as §1, §2

[10] = system: E. coli ATCC25922; assay type: cell-based, Escherichia coli
Description: as §1
All plates were incubated for 18–20 hours, except the F. psychrophilum plates which were incubated for 72 hours.
All the MIC measurements were carried out in duplicate.

[11] = system: E. coli ATCC25922
Experimental: as §2, with “hours. […]” for “hours.”

[12] = target: T1, trypsin (Bos taurus, UniProt P00760); experiment: Protease stability: MIC after incubation with trypsin; assay type: in vitro ADME; settings: for Antimicrobial Activity MIC: trypsin, protease:AMP 1:100 (w/w), trypsin-ultra reaction buffer, 37°C, test strain E. coli ATCC25922, triplicates
T1 construct: purchased NEB P8101
T1 sequence (P00760 24-246): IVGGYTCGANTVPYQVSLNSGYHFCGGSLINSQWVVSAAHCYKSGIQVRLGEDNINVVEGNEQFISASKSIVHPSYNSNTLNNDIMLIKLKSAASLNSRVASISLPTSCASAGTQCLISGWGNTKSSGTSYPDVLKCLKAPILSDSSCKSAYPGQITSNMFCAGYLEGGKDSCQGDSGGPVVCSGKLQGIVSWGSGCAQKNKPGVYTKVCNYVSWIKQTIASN
Experimental: as §2
(§4) AMPs were heated at 70°C or 90° for 5, 15 or 30 minutes. An untreated control, which was kept at RT, was used as a control. After incubation at 70°C or 90°C, the minimum inhibitory concentrations (MICs) of the peptides were measured in 96-well microtiter plates according the Clinical and Laboratory Standards Institute (CLSI, formerly National Committee for Clinical Laboratory Standards [NCCLS]) […] After incubation, the samples were cooked for 10 minutes at 90°C to inactivate the protease. Afterwards, the antimicrobial activity was determined by measuring the minimal inhibitory concentration (see Antimicrobial susceptibility testing)). E. coli ATCC25922 was used as a test strain.

[13] = target: T2, proteinase K (Parengyodontium album, UniProt P06873); experiment: Protease stability: MIC after incubation with proteinase K; assay type: in vitro ADME; settings: for Antimicrobial Activity MIC: proteinase K, protease:AMP 1:100 (w/w), 100 mM Tris-HCl pH 7.5, 37°C, test strain E. coli ATCC25922, triplicates
T2 construct: purchased NEB P8107S
Experimental: as §2, §4

T2 sequence (P06873 106-384): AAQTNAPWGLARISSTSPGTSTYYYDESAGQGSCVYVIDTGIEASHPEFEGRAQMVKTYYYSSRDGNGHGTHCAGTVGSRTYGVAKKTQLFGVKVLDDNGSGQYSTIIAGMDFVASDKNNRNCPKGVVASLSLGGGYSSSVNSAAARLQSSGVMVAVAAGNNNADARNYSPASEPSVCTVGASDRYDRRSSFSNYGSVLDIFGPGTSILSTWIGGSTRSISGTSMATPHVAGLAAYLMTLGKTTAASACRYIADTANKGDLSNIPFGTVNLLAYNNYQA

CC[C@H](C)[C@H](NC(=O)[C@H](CCCCN)NC(=O)[C@H](CCCCN)NC(=O)[C@H](CC(C)C)NC(=O)[C@H](CCCCN)NC(=O)[C@H](CCC(=O)O)NC(=O)[C@H](CCCCN)NC(=O)[C@@H](NC(=O)[C@H](CCCCN)NC(=O)[C@H](CC(N)=O)NC(=O)[C@H](CCCNC(=N)N)NC(=O)[C@H](Cc1ccccc1)NC(=O)[C@H](CCCCN)NC(=O)[C@H](CCCNC(=N)N)NC(=O)[C@H](CC(C)C)NC(=O)[C@H](CCCNC(=N)N)NC(=O)[C@H](CCCCN)NC(=O)[C@H](CCCNC(=N)N)NC(=O)[C@H](CC(C)C)NC(=O)CN)[C@@H](C)CC)C(=O)NCC(=O)N[C@@H](CCC(N)=O)C(=O)N[C@@H](CCCCN)C(=O)N[C@H](C(=O)N[C@@H](CCC(N)=O)C(=O)NCC(=O)N[C@@H](CC(C)C)C(=O)N[C@@H](CC(C)C)C(=O)N1CCC[C@H]1C(=O)N[C@@H](CCCCN)C(=O)N[C@@H](CC(C)C)C(=O)N[C@@H](C)C(=O)N1CCC[C@H]1C(=O)N[C@@H](CCCNC(=N)N)C(=O)N[C@H](C(=O)N[C@@H](CC(=O)O)C(=O)N[C@@H](Cc1ccc(O)cc1)C(=O)O)[C@@H](C)O)[C@@H](C)CC [Cap18] (H-GLRKRLRKFRNKIKEKLKKIGQKIQGLLPKLAPRTDY-OH)
Antimicrobial Activity MIC [1]: 4 to 8 µg/mL | Antimicrobial Activity MIC [2]: 2 µg/mL | Antimicrobial Activity MIC [3]: 2 µg/mL | Antimicrobial Activity MIC [4]: 2 µg/mL | Antimicrobial Activity MIC [5]: 2 µg/mL | Antimicrobial Activity MIC [6]: 4 µg/mL | Antimicrobial Activity MIC [7]: 4 µg/mL | Antimicrobial Activity MIC [8]: 4 µg/mL | Antimicrobial Activity MIC [9]: 4 µg/mL | Antimicrobial Activity MIC [10]: 4 µg/mL | Antimicrobial Activity MIC [11]: 8 µg/mL

CC[C@H](C)[C@H](NC(=O)[C@H](CC(C)C)NC(=O)[C@H](CCCCN)NC(=O)[C@H](CC(C)C)NC(=O)[C@H](CC(C)C)NC(=O)[C@H](CCCCN)NC(=O)[C@H](CCCNC(=N)N)NC(=O)[C@H](Cc1ccccc1)NC(=O)[C@H](CC(C)C)NC(=O)[C@H](CCCCN)NC(=O)[C@H](CCCNC(=N)N)NC(=O)[C@H](CC(C)C)NC(=O)[C@@H](N)CCCCN)C(=O)N[C@@H](CCCNC(=N)N)C(=O)N[C@@H](CCCCN)C(=O)N[C@@H](CC(C)C)C(=O)N[C@@H](CC(C)C)C(=O)N[C@@H](CCCNC(=N)N)C(=O)O [Cap11-1-18m^2] (H-KLRKLFRKLLKLIRKLLR-OH)
Antimicrobial Activity MIC [1]: 16 µg/mL | Antimicrobial Activity MIC [2]: 16 µg/mL | Antimicrobial Activity MIC [3]: 16 µg/mL | Antimicrobial Activity MIC [4]: 16 µg/mL | Antimicrobial Activity MIC [5]: 16 µg/mL | Antimicrobial Activity MIC [6]: 8 µg/mL | Antimicrobial Activity MIC [7]: 8 µg/mL | Antimicrobial Activity MIC [8]: 8 µg/mL | Antimicrobial Activity MIC [9]: 8 µg/mL | Antimicrobial Activity MIC [10]: 32 µg/mL | Antimicrobial Activity MIC [11]: 32 µg/mL

CC[C@H](C)[C@H](NC(=O)[C@H](CCCCN)NC(=O)[C@H](Cc1c[nH]c2ccccc12)NC(=O)[C@H](CCCNC(=N)N)NC(=O)[C@@H](N)CCCNC(=N)N)C(=O)N[C@H](C(=O)N[C@H](C(=O)N[C@H](C(=O)N[C@@H](CCCNC(=N)N)C(=O)N[C@@H](Cc1c[nH]c2ccccc12)C(=O)N[C@@H](CCCNC(=N)N)C(=O)N[C@@H](CCCNC(=N)N)C(N)=O)[C@@H](C)CC)C(C)C)C(C)C [Sub5-NH2] (H-RRWKIVVIRWRR-NH2)
Antimicrobial Activity MIC [1]: 4 to 8 µg/mL | Antimicrobial Activity MIC [2]: 1 µg/mL | Antimicrobial Activity MIC [3]: 1 µg/mL | Antimicrobial Activity MIC [4]: 1 µg/mL | Antimicrobial Activity MIC [5]: 1 µg/mL | Antimicrobial Activity MIC [6]: 2 µg/mL | Antimicrobial Activity MIC [7]: 2 µg/mL | Antimicrobial Activity MIC [8]: 2 µg/mL | Antimicrobial Activity MIC [9]: 2 µg/mL | Antimicrobial Activity MIC [10]: 4 µg/mL

GLRKKFRKTRKRIQKLGRKIGKTGRKVWKAWREYGQIPYPCRI [Cap11]
Antimicrobial Activity MIC [1]: 8 µg/mL | Antimicrobial Activity MIC [2]: 4 µg/mL | Antimicrobial Activity MIC [3]: 4 µg/mL | Antimicrobial Activity MIC [4]: 4 µg/mL | Antimicrobial Activity MIC [5]: 8 µg/mL | Antimicrobial Activity MIC [6]: 8 µg/mL | Antimicrobial Activity MIC [7]: 8 µg/mL | Antimicrobial Activity MIC [8]: 8 µg/mL | Antimicrobial Activity MIC [9]: 8 µg/mL | Antimicrobial Activity MIC [10]: 16 µg/mL | Antimicrobial Activity MIC [11]: 8 µg/mL

CNC(C)C1CCC(N)C(OC2C(N)CC(N)C(OC3OCC(C)(O)C(NC)C3O)C2O)O1 (stereo not drawn) [Gentamicin]
antimicrobial activity after protease (in words) ([12]; trypsin for 30 minutes, control antibiotic): retained its full antimicrobial activity | Antimicrobial Activity MIC ([12]; 0 min): 1 µg/mL | Antimicrobial Activity MIC ([12]; 0.5 min, then 10 min 90°C): 1 µg/mL | Antimicrobial Activity MIC ([12]; 2 min, then 10 min 90°C): 1 µg/mL | Antimicrobial Activity MIC ([12]; 5 min, then 10 min 90°C): 1 µg/mL | Antimicrobial Activity MIC ([12]; 15 min, then 10 min 90°C): 1 µg/mL | Antimicrobial Activity MIC ([12]; 30 min, then 10 min 90°C): 1 µg/mL | antimicrobial activity after protease (in words) ([13]; proteinase K for 30 minutes, control antibiotic): retained its full antimicrobial activity | Antimicrobial Activity MIC ([13]; 0 min): 1 µg/mL | Antimicrobial Activity MIC ([13]; 0.5 min, then 10 min 90°C): 1 µg/mL | Antimicrobial Activity MIC ([13]; 2 min, then 10 min 90°C): 1 µg/mL | Antimicrobial Activity MIC ([13]; 5 min, then 10 min 90°C): 1 µg/mL | Antimicrobial Activity MIC ([13]; 15 min, then 10 min 90°C): 1 µg/mL | Antimicrobial Activity MIC ([13]; 30 min, then 10 min 90°C): 1 µg/mL
